Experimental data from PubChem BioAssay (NCI).
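Results reflect a 48-hour exposure of cells in 96-well plates to compound at five concentrations. Definition used: TGI = concentration required for complete inhibition of growth.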 Where a SMILES comes first, the peptide text is derived from it. The star is where a group is joined. Cbz = O=C(OCc1ccccc1)*

How the values were obtained:
Assay in all cases: NCI tumour cell line growth inhibition, 48 h
[1] = tested on: SW-620 colon
[2] = tested on: T-47D breast
[3] = tested on: PC-3 prostate
[4] = tested on: OVCAR-4 ovarian
[5] = tested on: 786-0 renal
[6] = tested on: SR leukemia
[7] = tested on: ACHN renal
[8] = tested on: OVCAR-5 ovarian
[9] = tested on: HL-60(TB) leukemia
[10] = tested on: RXF 393 renal
[11] = tested on: MALME-3M melanoma
[12] = tested on: OVCAR-8 ovarian
[13] = tested on: HS 578T breast
[14] = tested on: UACC-62 melanoma

Row | Compound | TGI [1] [µM] | TGI [2] [µM] | TGI [3] [µM] | TGI [4] [µM] | TGI [5] [µM] | TGI [6] [µM] | TGI [7] [µM] | TGI [8] [µM] | TGI [9] [µM] | TGI [10] [µM] | TGI [11] [µM] | TGI [12] [µM] | TGI [13] [µM] | TGI [14] [µM]
1 | Cc1cc(S(=O)(=O)Nc2n[nH]c(N)n2)c(SCC(=O)O)cc1Cl | > 10 | > 10 | > 10 | > 10 | > 10 | > 10 | > 10 | > 10 | > 10 | > 10 | > 10 | > 10 | > 10 | 
2 | CCOC(=O)NC(Nc1ccc(S(=O)(=O)Nc2nc(C)cc(C)n2)cc1)(C(=O)OCC)C(F)(F)F (stereo not drawn) | > 100 | > 100 | > 100 | > 100 | > 100 | 27.4 | > 100 | > 100 | > 100 | > 100 | > 100 | > 100 | > 100 | > 100
3 | Clc1ccc(C2C3COc4ccccc4C3=NN2c2ccccc2)cc1 (stereo not drawn) | > 32.7 | > 100 | > 100 | > 100 | > 96.4 | 1.78 | > 100 | > 100 | > 68.2 | > 100 | > 100 | > 100 | > 100 | > 100
4 | O=C(/C=C/c1cc2ccccc2o1)N1CCN(c2ccccn2)CC1 | > 100 | > 100 | > 100 | > 100 | > 100 | > 100 |  | > 100 | > 100 | > 100 | > 100 | > 100 | > 100 | > 100
5 | Cc1nn(-c2ccccc2)c2c1C(c1ccc(Cl)cc1)NC(=S)N2 (stereo not drawn) | 71.1 | > 100 | 47.9 | > 100 | 36.8 | > 100 | 38.4 | 89.4 | 95.8 | 35.3 | 93.9 | 43.3 | > 100 | 60.5
6 | COC(=O)C(Cc1c[nH]c2ccccc12)NP(=O)(O)OCC1OC(n2cc(I)c(=O)[nH]c2=O)CC1O (stereo not drawn) | > 100 | > 100 | > 100 | > 100 | > 100 | > 100 | > 100 | > 100 | > 100 |  | > 100 | > 100 | > 100 | > 100
7 | Nc1nc(SC/C=C/c2ccccc2)c2[nH]cnc2n1 | > 100 | > 100 | > 100 | > 100 | > 100 | > 100 | > 100 | > 100 | > 100 | > 100 | > 100 | > 100 | 88.8 | > 100
8 | O=c1c(/C=C/c2c(O)ccc3ccccc23)nnc2sc(-c3cccc(Br)c3)nn12 | > 100 | 37.3 | > 100 | 31.9 | > 100 | 41.1 | > 100 | > 100 | 26.6 |  | > 100 | 23.6 | > 100 | 68.6
9 | CC(O)C1(CNc2cc(Cl)nc(N)n2)CCC1 (stereo not drawn) | > 100 | > 100 | > 100 | > 100 | > 100 | > 100 | > 100 | > 100 | > 100 | > 100 | > 100 | > 100 | > 100 | > 100
10 | CC1OC(OC2C(O)COC(OC3C(C)OC(OC4C(OC(=O)[C@]56CCC(C)(C)C[C@@H]5C5=CCC7[C@@]8(C)C[C@H](O)[C@H](OC9OC(CO)C(O)C(O)C9O)[C@@](C)(CO)[C@@H]8CC[C@@]7(C)[C@]5(C)CC6)OCC(O)C4O)C(O)C3OC3OCC(O)(CO)C3O)C2O)C(O)C(O)C1O (stereo partly drawn) | 31.6 | 51.1 | 28.6 | 37.2 | 27.8 | 38 | 34 | 24.3 | 30.2 | 34.1 | 33.8 | 40.4 | 35.8 | 31.6
11 | CN1C2CCC1CC(=CCOC(c1ccc(F)cc1)c1ccc(F)cc1)C2 | > 100 | 35.1 | 33.1 | 31.9 | 27.9 | 37.3 | 31.8 | 36 | 43.5 | 28.2 | 27.2 | 32 | 27.5 | 29.5
12 | COc1ccc(P2(=S)OC(C)(C)C(C)(C)O2)cc1 | > 100 | > 100 | > 100 | > 100 | > 100 | > 100 | > 100 | > 100 | > 100 |  | > 100 | > 100 | > 100 | > 100
13 | Fc1cc(-c2cc(-c3ccccc3)no2)c(Cl)cc1Cl | > 63.3 | > 57.7 | > 50 | > 77.3 | > 33.6 | > 41.8 | > 59.6 | > 42.9 | > 37.7 | 16.6 | > 35.2 | > 40.8 | > 88.9 | > 100
14 | O=Cc1[nH]c(=O)[nH]c(=O)c1C(=O)O | > 100 | > 100 | > 100 | > 100 | > 100 | > 100 | > 100 | > 100 | > 100 | > 100 | > 100 | > 100 | > 100 | > 100
15 | Cn1cc(NC(=O)Nc2cc(C(=O)Nc3cc(C(=O)Nc4ccc(S(=O)(=O)O)c5cc(S(=O)(=O)O)ccc45)n(C)c3)n(C)c2)cc1C(=O)Nc1cc(C(=O)Nc2ccc(S(=O)(=O)O)c3cc(S(=O)(=O)O)ccc23)n(C)c1 | > 100 | > 100 | > 100 | > 100 | > 100 | > 100 | > 100 | > 100 | > 100 | > 100 | > 100 | > 100 | > 100 | > 100
16 | COC(=O)C1=C(C(=O)NNc2ccccc2)N(c2cccnc2Cl)C(c2ccccc2)=CC1c1ccccc1 (stereo not drawn) | > 100 | > 100 | > 100 | > 100 | > 100 | > 100 | > 100 | > 100 | > 100 |  | > 100 | > 100 | > 100 | > 100

Row | Compound | TGI [1] [µM] | TGI [2] [µM] | TGI [3] [µM] | TGI [4] [µM] | TGI [5] [µM] | TGI [6] [µM] | TGI [7] [µM] | TGI [8] [µM] | TGI [9] [µM] | TGI [10] [µM] | TGI [11] [µM] | TGI [12] [µM] | TGI [13] [µM] | TGI [14] [µM]
17 | CCCCCCc1cc2cc(C(=O)Nc3ccccc3)c(=N)oc2cc1O | > 100 | > 47.1 | > 30.3 | > 60.9 | > 35.8 | > 26.3 | > 100 | > 100 | > 100 | > 100 | 5.6 | > 49.6 | 20 | 40.1
18 | Oc1[nH]c2ccccc2c1N=NC(=S)Nc1cccc(Cl)c1 | 26.8 | > 100 | > 100 | 59.4 | 27.6 | 9.71 | 28.8 | > 100 | 49.6 | 48.7 | 52.3 | 35.7 | > 100 | 29
19 | C/C=C(/C)C(=O)O[C@@H]1CCN2CC[C@H](COC(=O)/C(=C/C)CO)C12 (stereo partly drawn) | > 100 | > 100 | > 100 | > 100 | > 100 | > 100 | > 100 | > 100 | > 100 | > 100 | 84.2 | > 100 | > 93.4 | > 100
20 | N#Cc1c(-c2ccc(Cl)cc2Cl)nc2[nH][nH]c(=S)n2c1=O | > 100 | > 100 | > 100 | > 100 | > 100 | > 100 | > 100 | > 100 | > 100 | > 100 | > 100 | > 100 | > 100 | > 100
21 | O=C(O)CCC(NC(=O)OCc1ccccc1)C(=O)NC(Cc1cnc[nH]1)C(=O)O (stereo not drawn) (Cbz-Glu-His-OH; configuration not given here) | > 100 | > 100 | > 100 | > 100 | > 100 | > 100 | > 100 | > 100 | > 100 | > 100 | > 100 | > 100 | > 100 | > 100
22 | CCOC1OC(=O)c2cc3ccc4c(c3c(-c3ccc5c(c3)OCO5)c21)OCO4 (stereo not drawn) | > 100 | > 100 | > 100 | > 100 | > 100 | 5.43 | > 100 | > 100 | > 100 | 97.9 | > 100 | > 100 | > 39.6 | > 59.2
23 | CCOC(=O)CC[C@H](NC(=O)[C@H](N)Cc1ccc(N(CCCl)CCCl)cc1)C(=O)OCC | > 58.8 | 38.6 | > 75.1 | > 45.2 | 23.5 | > 100 | > 100 | 65 | 36.6 | 29.7 | 9.92 | > 52.8 | 52.7 | 15.2
24 | O=C1/C(=C/c2ccccc2S)N=C(c2ccccc2)N1c1nc2c(Cl)cc(Cl)cc2s1 | > 100 | > 100 | 51.6 | 73.8 | 74.1 | 34 | 58 | 54.8 | 42.6 | 58 |  | 73.3 | 75.8 | 57.5
25 | COC(=O)c1ccccc1/C=C1\Cc2ccc(C)c(C)c2C1=O | > 100 | > 100 | > 100 | > 100 | > 100 | > 100 | > 100 | > 100 | > 100 | > 100 | > 100 | > 100 | > 100 | > 100
26 | Cc1nc2c(nc1C)-c1[nH]c3c(c1C(=O)C2=O)CCCC3=O | 5.17 | 0.709 | 15.7 | 3.04 | 7.34 | 6.4 | 7.35 | 4.7 | 5.78 | 2.41 | 2.82 | 2.88 | > 59.2 | 3.25
27 | N#Cc1c(N)nc2n[nH]c(N)c2c1-c1ccc(Cl)cc1 | > 100 | 4.62 | 16.7 | > 100 | > 60.8 | > 100 | 9.69 | > 100 | > 100 | 7.26 | 8.69 | > 50.8 | 8.64 | 4.23
28 | COC(=O)C1=C(O)C(C(=O)OC)[C@]2(O)[C@H](C(=O)OC)[C@H]1C[C@@H](c1ccc(C(F)(F)F)cc1)[C@H]2C(=O)OC (stereo partly drawn) | > 100 | > 100 | 94.6 | > 100 | 23.4 | > 100 | > 100 | 15 | 30.2 | 6.5 | 22.4 | > 100 | > 100 | 29
29 | CCOC(=O)C12OC(CCC1=O)C(C(=O)OC)=C2C(=O)OC (stereo not drawn) | > 10 | > 10 | > 10 | > 10 | > 10 | > 10 | > 10 | > 10 | > 10 | > 10 | > 10 | > 10 | > 10 | > 10
30 | O=C1CCCC1CN1CCCC1 (stereo not drawn) | 11.3 | 10.8 | 35.2 | 4.32 | 14.9 | 1.16 | 15 | 32.4 | 3.02 |  | 3.72 | 35.4 | 55.7 | 32.6
31 | COc1cc2c(C)cc(O)cc2c2cc(O)c(C)cc12 | 19.8 | 20.5 | 19 | 21.9 | 17.7 | 6.18 | 22.6 | 24.3 | 13 | 22.9 |  | 40.2 | 53.8 | 22.3
32 | CC#CCOC(=O)c1ccccc1OC(C)=O | > 100 | > 100 | > 100 | > 100 | > 100 | > 100 | > 100 | > 100 | > 100 | > 100 |  | > 100 | > 100 | > 100
